Test system: Detoxification protein genes
Assay: DNA chip mRNA expression in yeast, detoxification protein genes (Table 8)
Format: cell-based, Saccharomyces cerevisiae S288C
Outline: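 Expression change after 2 h toxicant exposure (growth-inhibiting, sub-lethal) of log-phase S. cerevisiae S288C at 25° C. Oligo-dT-purified mRNA was labeled with Cy3-dUTP or Cy5-dUTP and hybridized >12 h at 65° C. to a genome-wide chip; ratio of scanned fluorescence to control.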

[Cl][Hg][Cl] [(3), HgCl2]
The level of expressed mRNA in the presence of chemical substance/The level of expressed mRNA in the absence of chemical substance (yeast gene YBL064C): 3.9 | The level of expressed mRNA in the presence of chemical substance/The level of expressed mRNA in the absence of chemical substance (yeast gene YBR008C): 4.9 | The level of expressed mRNA in the presence of chemical substance/The level of expressed mRNA in the absence of chemical substance (yeast gene YBR145W): 2.8 | The level of expressed mRNA in the presence of chemical substance/The level of expressed mRNA in the absence of chemical substance (yeast gene YBR244W): 2.0 | The level of expressed mRNA in the presence of chemical substance/The level of expressed mRNA in the absence of chemical substance (yeast gene YBR293W): 1.0 | The level of expressed mRNA in the presence of chemical substance/The level of expressed mRNA in the absence of chemical substance (yeast gene YCL035C): 1.5 | The level of expressed mRNA in the presence of chemical substance/The level of expressed mRNA in the absence of chemical substance (yeast gene YCL069W): 0.9 | The level of expressed mRNA in the presence of chemical substance/The level of expressed mRNA in the absence of chemical substance (yeast gene YCR083W): 1.5 | The level of expressed mRNA in the presence of chemical substance/The level of expressed mRNA in the absence of chemical substance (yeast gene YDL100C): 1.1 | The level of expressed mRNA in the presence of chemical substance/The level of expressed mRNA in the absence of chemical substance (yeast gene YDL168W): 2.1 | The level of expressed mRNA in the presence of chemical substance/The level of expressed mRNA in the absence of chemical substance (yeast gene YDR256C): 0.7 | The level of expressed mRNA in the presence of chemical substance/The level of expressed mRNA in the absence of chemical substance (yeast gene YDR453C): 4.4 | The level of expressed mRNA in the presence of chemical substance/The level of expressed mRNA in the absence of chemical substance (yeast gene YDR513W): 2.3 | The level of expressed mRNA in the presence of chemical substance/The level of expressed mRNA in the absence of chemical substance (yeast gene YDR538W): 2.4 | The level of expressed mRNA in the presence of chemical substance/The level of expressed mRNA in the absence of chemical substance (yeast gene YEL027W): 3.4 | The level of expressed mRNA in the presence of chemical substance/The level of expressed mRNA in the absence of chemical substance (yeast gene YEL065W): 1.2 | The level of expressed mRNA in the presence of chemical substance/The level of expressed mRNA in the absence of chemical substance (yeast gene YER185W): 2.1 | The level of expressed mRNA in the presence of chemical substance/The level of expressed mRNA in the absence of chemical substance (yeast gene YFL050C): 1.1 | The level of expressed mRNA in the presence of chemical substance/The level of expressed mRNA in the absence of chemical substance (yeast gene YGL013C): 0.8 | The level of expressed mRNA in the presence of chemical substance/The level of expressed mRNA in the absence of chemical substance (yeast gene YGL254W): 0.8 | The level of expressed mRNA in the presence of chemical substance/The level of expressed mRNA in the absence of chemical substance (yeast gene YGR088W): 7.7 | The level of expressed mRNA in the presence of chemical substance/The level of expressed mRNA in the absence of chemical substance (yeast gene YGR138C): 1.0 | The level of expressed mRNA in the presence of chemical substance/The level of expressed mRNA in the absence of chemical substance (yeast gene YGR197C): 2.5 | The level of expressed mRNA in the presence of chemical substance/The level of expressed mRNA in the absence of chemical substance (yeast gene YGR209C): 3.5 | The level of expressed mRNA in the presence of chemical substance/The level of expressed mRNA in the absence of chemical substance (yeast gene YGR224W): 1.2 | The level of expressed mRNA in the presence of chemical substance/The level of expressed mRNA in the absence of chemical substance (yeast gene YHL040C): 1.5 | The level of expressed mRNA in the presence of chemical substance/The level of expressed mRNA in the absence of chemical substance (yeast gene YHL047C): 1.0 | The level of expressed mRNA in the presence of chemical substance/The level of expressed mRNA in the absence of chemical substance (yeast gene YHR008C): 4.8 | The level of expressed mRNA in the presence of chemical substance/The level of expressed mRNA in the absence of chemical substance (yeast gene YHR048W): 1.4 | The level of expressed mRNA in the presence of chemical substance/The level of expressed mRNA in the absence of chemical substance (yeast gene YHR053C): 0.7 | The level of expressed mRNA in the presence of chemical substance/The level of expressed mRNA in the absence of chemical substance (yeast gene YHR055C): 0.8 | The level of expressed mRNA in the presence of chemical substance/The level of expressed mRNA in the absence of chemical substance (yeast gene YIR002C): 0.5 | The level of expressed mRNA in the presence of chemical substance/The level of expressed mRNA in the absence of chemical substance (yeast gene YIR038C): 4.6 | The level of expressed mRNA in the presence of chemical substance/The level of expressed mRNA in the absence of chemical substance (yeast gene YJL101C): 2.1 | The level of expressed mRNA in the presence of chemical substance/The level of expressed mRNA in the absence of chemical substance (yeast gene YJR104C): 2.9 | The level of expressed mRNA in the presence of chemical substance/The level of expressed mRNA in the absence of chemical substance (yeast gene YKL026C): 1.2 | The level of expressed mRNA in the presence of chemical substance/The level of expressed mRNA in the absence of chemical substance (yeast gene YKL064W): 0.4 | The level of expressed mRNA in the presence of chemical substance/The level of expressed mRNA in the absence of chemical substance (yeast gene YKR066C): 5.5 | The level of expressed mRNA in the presence of chemical substance/The level of expressed mRNA in the absence of chemical substance (yeast gene YKR105C): 0.9 | The level of expressed mRNA in the presence of chemical substance/The level of expressed mRNA in the absence of chemical substance (yeast gene YKR106W): 2.1 | The level of expressed mRNA in the presence of chemical substance/The level of expressed mRNA in the absence of chemical substance (yeast gene YLL028W): 4.6 | The level of expressed mRNA in the presence of chemical substance/The level of expressed mRNA in the absence of chemical substance (yeast gene YLL057C): 1.8 | The level of expressed mRNA in the presence of chemical substance/The level of expressed mRNA in the absence of chemical substance (yeast gene YLL060C): 2.3 | The level of expressed mRNA in the presence of chemical substance/The level of expressed mRNA in the absence of chemical substance (yeast gene YLR043C): 2.0 | The level of expressed mRNA in the presence of chemical substance/The level of expressed mRNA in the absence of chemical substance (yeast gene YLR046C): 0.9 | The level of expressed mRNA in the presence of chemical substance/The level of expressed mRNA in the absence of chemical substance (yeast gene YML028W): 4.4 | The level of expressed mRNA in the presence of chemical substance/The level of expressed mRNA in the absence of chemical substance (yeast gene YML116W): 1.5 | The level of expressed mRNA in the presence of chemical substance/The level of expressed mRNA in the absence of chemical substance (yeast gene YMR015C): 1.9 | The level of expressed mRNA in the presence of chemical substance/The level of expressed mRNA in the absence of chemical substance (yeast gene YMR038C): 1.8 | The level of expressed mRNA in the presence of chemical substance/The level of expressed mRNA in the absence of chemical substance (yeast gene YNL239W): 2.4 | The level of expressed mRNA in the presence of chemical substance/The level of expressed mRNA in the absence of chemical substance (yeast gene YNL241C): 4.3 | The level of expressed mRNA in the presence of chemical substance/The level of expressed mRNA in the absence of chemical substance (yeast gene YNL259C): 1.1 | The level of expressed mRNA in the presence of chemical substance/The level of expressed mRNA in the absence of chemical substance (yeast gene YOL158C): 2.4 | The level of expressed mRNA in the presence of chemical substance/The level of expressed mRNA in the absence of chemical substance (yeast gene YOR031W): 1.3 | The level of expressed mRNA in the presence of chemical substance/The level of expressed mRNA in the absence of chemical substance (yeast gene YOR153W): 5.1 | The level of expressed mRNA in the presence of chemical substance/The level of expressed mRNA in the absence of chemical substance (yeast gene YOR247W): 3.6 | The level of expressed mRNA in the presence of chemical substance/The level of expressed mRNA in the absence of chemical substance (yeast gene YOR251C): 1.3 | The level of expressed mRNA in the presence of chemical substance/The level of expressed mRNA in the absence of chemical substance (yeast gene YOR273C): 1.7 | The level of expressed mRNA in the presence of chemical substance/The level of expressed mRNA in the absence of chemical substance (yeast gene YPL163C): 1.4 | The level of expressed mRNA in the presence of chemical substance/The level of expressed mRNA in the absence of chemical substance (yeast gene YPR200C): 0.8

From patent US8192962B2, “Processes for detecting toxic substances” (Daikin Industries, Ltd., priority 2001, dated 2012)
